Source: patent publication US20040258662A1, “Antineoplastic agents” (Wyeth, priority 2003, published 2004)

How the values were obtained:
[1] = system: HTB-44 human renal tumor; assay: HTB-44 human renal tumor xenograft test procedure in nude mice; assay type: in vivo; design: Tumor mass, % of vehicle control, Week 0 / Tumor mass, % of vehicle control, Week 2 / Tumor mass, % of vehicle control, Week 4: concentration or dose not given beside the values; conditions: for effect on tumor growth (in words): CCI-779 25 mg/kg iv weekly or IFN-α 1 million units ip 3 times per week; for Tumor mass, Week 0 / Tumor mass, Week 2 / Tumor mass, Week 4 / Tumor mass, Week 5: CCI-779 25 mg/kg iv once per week; for Tumor mass, Week 0 / Tumor mass, Week 2 / Tumor mass, Week 4: IFN-α 1 × 10^6 units ip 3 times per week; for Tumor mass, Week 0: 4 weeks, tumors about 600 mg at start; for Tumor mass, % of vehicle control, Week 0 / Tumor mass, % of vehicle control, Week 2 / Tumor mass, % of vehicle control, Week 4 / Tumor mass, % of vehicle control, Week 5: same dosing as the tumor mass values; for Tumor mass, Week 5: IFN-α 1 × 10^6 units ip 3 times per week for 4 weeks
Procedure: CCI-779 was evaluated in combination with Interferon-alpha (IFN-α) in the HTB44 human mouse xenograft standard pharmacological test procedure of renal cancer. The human renal cell line HTB-44 (also referred to in the scientific literature as A498) is derived from a patient with a clear cell carcinoma that had lost expression of the von Hippel-Lindau (VHL) gene. These types of tumors are representative of the large majority (≈80%) of sporadic renal cell carcinomas.
CCI-779 was evaluated as a single agent on a weekly schedule against large (>500mg) HTB-44 tumors in nude mouse xenografts. Dosing was from 10 mg/kg to 75 mg/kg intravenously once a week beginning on day 0 when tumors had reached a size of about 500 mm^3.
Similarly, a dose response of IFN-α as a single agent was performed. […] Therefore, a dose of 1 million units 3 times per week intraperitoneally was chosen to combine with CCI-779 at 25 mg/kg iv once per week. Groups of 10 mice were treated with CCI-779 alone, IFN-α alone, or the combination (Table 1). IFN-α was given on days 1, 3, and 5 and CCI-779 on day 6 of each week for 4 weeks. Dosing began after tumors had reached a size of about 600 mg.

[2] = system: advanced RCC; assay: Phase 1 open-label ascending-dose study of CCI-779 plus IFN in RCC patients; assay type: in vivo
Procedure: Thus, the combination of CCI-779 and IFN was evaluated in RCC patients (pts) in a phase 1 study.
In an open-label, ascending-dose, single-arm study, CCI-779 was given IV once weekly, with IFN given subcutaneously 3 times weekly. IFN was given alone the 1st treatment week. The starting dose levels were 6 million units (MU) IFN and 5 mg CCI-779. CCI-779 dose-escalation steps were 10 mg, 15 mg, and 25 mg. Once the maximum dose of CCI-779 is determined, the dose level of IFN can be escalated to 9 MU (at a reduced CCI-779 dose, if necessary). Dose escalation was based on a safety evaluation of pts (≧6/cohort) after 4 weeks of treatment.
Up to 40 patients are being evaluated at the maximum tolerated dose (MTD). In summary, 71 pts with advanced RCC were enrolled; 27 continue treatment. Patients (73% men, 27% women) had ECOG performance status of 0: 53% and 1: 46% and median age of 59 yrs (range, 35-80); 45% had prior IL-2 treatment. In dose escalation, patients received 6 MU IFNα with CCI-779 at 5 mg (7 pts), 10 mg (6), 15 mg (6), 20 mg (6), or 25 mg (7); 6 pts also received 9 MU IFNα with 15 mg CCI-779. […] To date, 33 additional patients have been accrued at the MTD. […] CCI-779-related adverse events with overall frequency ≧5% (n=53) were leukopenia (25%), hyperlipidemia (15%), asthenia (13%), AST increase (8%), mucositis (6%), anemia (6%), thrombocytopenia (6%), and rash (6%). Four patients were removed from study due to CCI-779-related toxicity. Approximately 50% of MTD patients have required CCI-779 dose reductions in subsequent cycles. Median time on treatment for all cohorts was 7 mo, 36 have continued for >6 mo of whom 9 have continued for >12 mo. Preliminary tumor responses (RECIST) in 55 pts were confirmed partial response, 7 pts (13%); stable disease, 39 (71%, 19 pts ≧6 mo); and progressive disease, 9 (16%).

[3] = Stability of CCI-779 in parenteral cosolvent formulation; assay type: physicochemical; conditions: citric acid at a concentration of less than 0.01% w/v
Source text: In this embodiment, the stability of CCI-779 in parenterally acceptable alcoholic cosolvents is enhanced by addition of an antioxidant to the formulation. Acceptable antioxidants include, but are not limited to, citric acid, d,l-α-tocopherol, BHA, BHT, monothioglycerol, ascorbic acid, propyl gallate, and mixtures thereof. Generally, the parenteral formulations useful in this embodiment of the invention will contain an antioxidant component(s) in a concentration ranging from 0.001% to 1% w/v, or 0.01% to 0.5% w/v, of the cosolvent concentrate, although lower or higher concentrations may be desired. Of the antioxidants, d,l-α-tocopherol is particularly desirable and is used at a concentration of 0.01 to 0.1% w/v with a preferred concentration of 0.075% w/v of the cosolvent concentrate.
Examples of such chelating agents include, e.g., citric acid, acetic acid, and ascorbic acid (which may function as both a classic antioxidant and a chelating agent in the present formulations). Other chelating agents include such materials as are capable of binding metal ions in solution, such as ethylene diamine tetra acetic acid (EDTA), its salts, or amino acids such as glycine are capable of enhancing the stability of CCI-779. […] Optimal concentrations for the selected antioxidant(s) can be readily determined by one of skill in the art, based upon the information provided herein.

[4] = system: tumor cells; conditions: cited from earlier work
[5] = system: human tumor xenografts; conditions: nude mice, cited from earlier work
[6] = system: human glioblastoma cell line; conditions: in vitro; cited from earlier work

Interferon α [reference compound]
single agent dose response, effectiveness ([1]; 1 million units or 0.5 million units 3 times per week, data not shown): similarly effective | effect on tumor growth (in words) ([1]; single agent): retardation of tumor growth without tumor regression | Tumor mass, Week 0 [1]: 586 mg | Tumor mass, % of vehicle control, Week 0 [1]: 100% | Tumor mass, Week 2 [1]: 682 mg | Tumor mass, % of vehicle control, Week 2 [1]: 66% | Tumor mass, Week 4 [1]: 957 mg | Tumor mass, % of vehicle control, Week 4 [1]: 48% | Tumor mass, Week 5 [1]: 1280 mg | Tumor mass, % of vehicle control, Week 5 [1]: 57%

CO[C@H]1C[C@@H]2CC[C@@H](C)[C@@](O)(O2)C(=O)C(=O)N2CCCC[C@H]2C(=O)O[C@H]([C@H](C)C[C@@H]2CC[C@@H](OC(=O)C(C)(CO)CO)[C@H](OC)C2)CC(=O)[C@H](C)/C=C(\C)[C@@H](O)[C@@H](OC)C(=O)[C@H](C)C[C@H](C)/C=C/C=C/C=C/1C [CCI-779, Rapamycin 42-ester with 3-hydroxy-2-(hydroxymethyl)-2-methylpropionic acid]
inhibition of tumor growth ([1]; single agent, 10 mg/kg to 75 mg/kg iv once a week, tumors about 500 mm^3 on day 0, all doses): 30-35% | tumor regression at three fold higher dose ([1]; single agent, 75 mg/kg): did not induce tumor regression | effect on tumor growth (in words) ([1]; single agent): retardation of tumor growth without tumor regression | Tumor mass, Week 0 [1]: 589 mg | Tumor mass, % of vehicle control, Week 0 [1]: 100% | Tumor mass, Week 2 [1]: 825 mg | Tumor mass, % of vehicle control, Week 2 [1]: 80% | Tumor mass, Week 4 [1]: 1382 mg | Tumor mass, % of vehicle control, Week 4 [1]: 69% | Tumor mass, Week 5 [1]: 1539 mg | Tumor mass, % of vehicle control, Week 5 [1]: 68% | MTD patients requiring CCI-779 dose reductions in subsequent cycles ([2]; at MTD 15 mg CCI-779, 6 MU IFNα): Approximately 50% | Grade 34 CCI-779-related adverse events, frequency: AST increase ([2]; both, human, in vivo): 8% | Grade 34 CCI-779-related adverse events, frequency: anemia ([2]; both, human, in vivo): 6% | Grade 34 CCI-779-related adverse events, frequency: asthenia ([2]; both, human, in vivo): 13% | Grade 34 CCI-779-related adverse events, frequency: hyperlipidemia ([2]; both, human, in vivo): 15% | Grade 34 CCI-779-related adverse events, frequency: leukopenia ([2]; both, human, in vivo): 25% | Grade 34 CCI-779-related adverse events, frequency: mucositis ([2]; both, human, in vivo): 6% | Grade 34 CCI-779-related adverse events, frequency: rash ([2]; both, human, in vivo): 6% | Grade 34 CCI-779-related adverse events, frequency: thrombocytopenia ([2]; both, human, in vivo): 6% | CCI-779-related adverse events, frequency: anemia ([2]; human, in vivo): 33% | CCI-779-related adverse events, frequency: anorexia ([2]; human, in vivo): 33% | CCI-779-related adverse events, frequency: asthenia ([2]; human, in vivo): 39% | CCI-779-related adverse events, frequency: chills ([2]; human, in vivo): 22% | CCI-779-related adverse events, frequency: diarrhea ([2]; human, in vivo): 28% | CCI-779-related adverse events, frequency: fever ([2]; human, in vivo): 22% | CCI-779-related adverse events, frequency: hyperlipidemia ([2]; human, in vivo): 28% | CCI-779-related adverse events, frequency: leukopenia ([2]; human, in vivo): 22% | CCI-779-related adverse events, frequency: nausea ([2]; human, in vivo): 39% | CCI-779-related adverse events, frequency: taste perversion ([2]; human, in vivo): 22% | Gr 3-4 CCI-779-related AEs: hyperglycemia, number of pts ([2]; human, in vivo): 2 pts | Gr 3-4 CCI-779-related AEs: hyperlipidemia, number of pts ([2]; human, in vivo): 4 pts | Gr 3-4 CCI-779-related AEs: leukopenia, number of pts ([2]; human, in vivo): 3 pts | patients removed from study due to CCI-779-related toxicity ([2]; human, in vivo): Four | CCI-779-related adverse events, frequency: mucositis ([2]; preliminary results, n=18, CCI-779 5-25 mg IV once weekly with IFN 6 MU sc 3 times weekly): 44% | CCI-779-related adverse events, frequency: allergic reaction ([2]; preliminary results, n=18, with IFN): 22% | stability of CCI-779 with citric acid [3]: enhanced the stability | growth of tumor cells in vitro ([4]; CNS cancer, leukemia (T-cell), breast, prostate and melanoma lines most sensitive): inhibit the growth of a number of histologically diverse tumor cells | cell cycle effect ([4]; in vitro): arrested cells in the G1 phase of the cell cycle | activity in orthotopic glioma model [5]: active | activity against human tumor xenografts ([5]; gliomas particularly sensitive): activity against human tumor xenografts of diverse histological types | growth factor (platelet-derived)-induced stimulation of human glioblastoma cell line [6]: markedly suppressed
